Patent US5112595A, “99MTC(III) myocardial imaging agents and method of use” (Mallinckrodt Medical, Inc., priority 1990, dated 1992)

Experiment: Biodistribution of Tc-99m (III) complexes in guinea pigs
Format: in vivo
Source text: Biodistribution Data of Selected Tc-99m (III) Complexes in Guinea Pigs

Row | % Heart uptake (5 min) [%Injected dose/Organ] | % Heart uptake (60 min) [%Injected dose/Organ] | Heart/Blood (ratio at 5 min) | Heart/Liver (ratio at 5 min) | Heart/Blood (ratio at 60 min) | Heart/Liver (ratio at 60 min) | Substance
1 | 0.8 | 0.9 | 5.4 | 1.2 | 58.6 | 3.0 | trans-[1,2-bis[dihydro-2,2,5,5-tetramethyl-3(2H)furanone-4-methyleneamino]ethane]bis-tris(2-(2-(1,3-dioxanyl))]ethylphosphine]technetium-99m(III) [Complex IV]
2 | 1.1 | 1.0 | 5.9 | 0.9 | 3.5 | 1.5 | trans-[1,2-bis[dihydro-2,2,5,5-tetramethyl-3(2H)furanthione-4-methyleneamino]ethane]-bis[tris(3-methoxypropyl)phosphine]technetium-99m (III) [Complex III]
3 | 0.9 | 0.8 | 6.1 | 1.6 | 26.5 | 5.6 | trans-[1-[dihydro-2,2,5,5-tetramethyl-3(2H)furanthione-4-methyleneamino]-2-[dihydro-2,2,5,5-tetramethyl-3(2H)furanone-4-methyleneaminoethane]bis[tris(3-methoxypropyl)phosphine]technetium99 m(III) [Complex II]

Row | Substance | % Heart uptake (5 min) [%Injected dose/Organ] | % Heart uptake (60 min) [%Injected dose/Organ] | Heart/Blood (ratio at 5 min) | Heart/Liver (ratio at 5 min) | Heart/Blood (ratio at 60 min) | Heart/Liver (ratio at 60 min)
4 | trans-[1,2-bis[dihydro-2,2,5,5-tetramethyl-3(2H)furanone-4-methyleneamino]ethane]bis-[tris(3-methoxypropyl)phosphine]technetium-99 m(III) [Complex I] | 0.8 | 0.9 | 4.6 | 1.5 | 35.6 | 6.6
